Reference: paper PMC7395068, “The evolution of strategies to minimise the risk of human drug-induced liver injury (DILI) in drug discovery and development” (Archives of Toxicology, 2020)
Where two headings read alike, the source gives them in different places.

How the values were obtained:
[1] = in vivo; cited from earlier work
[2] = Plasma free fraction (fu) and unbound Cmax (Cmax,u); type: in vitro ADME, human; details: human
Protocol: The prediction of DILI severity was evaluated further using the 3D combined HCI assays using plasma-free fraction. The majority of fu values were obtained from literature, when unavailable in-house prediction was utilised. Unbound plasma Cmax concentrations (Cmax,u) were derived by multiplying total plasma Cmax with the corresponding free fraction (fu) for each compound.

HepG2 cells [3] = details: cited from earlier work
hLiMTs [4] = details: cited from earlier work
[5] = human, in vivo; cited from earlier work
human hepatocytes = details: cited from earlier work
hLiMTs [6] = test: Combined HCI (HCS) and cellular ATP 3D assay in hLiMTs; details: Homo sapiens
Protocol: (§1) 3D spheroid models consisting of either primary human hepatocytes with non-parenchymal cells (hLiMT’s) or HepaRG cells (HepaRG spheroids) were assessed for size (MS), oxidative stress (OS), MMP, mitochondrial mass (MM), GSH and cellular ATP content following drug exposure. Fluorescent images are acquired using the confocal mode of an ArrayScan™ XTI HCI reader (ThermoScientific) following which cellular ATP was measured using 3D CellTiter-Glo (Promega).

[7] = in vivo; cited from earlier work; remark: listed apart in the source
HepaRG spheroids [8] = test system: HepaRG spheroids
PHH [9] = details: cited from earlier work
[10] = test system: primary human hepatocytes, NIH3T3 fibroblasts, BSEP, CYP3A4; details: cited from earlier work
hLiMTs [11] = test system: hLiMTs
Protocol: as §1

hu-MPCC = details: cited from earlier work
HepG2 cells [12] = details: cited from earlier work; remark: listed apart in the source
[13] = in vivo; cited from earlier work; remark: listed apart in the source
RMPCC's = details: cited from earlier work
[14] = test system: THLE or HepG2 cells, isolated mitochondria, BSEP; details: cited from earlier work
HepaRG spheroids [15] = test: Combined HCI (HCS) and cellular ATP 3D assay in HepaRG spheroids; details: Homo sapiens, HepaRG
HepG2 = test system: HepG2; set-up: method as in Albrecht 2019; details: In vitro Assay; ref Albrecht 2019; cited from earlier work
[16] = test system: isolated mouse liver mitochondria; details: In vitro Assay; ref Porceddu 2012; cited from earlier work
PHH [17] = details: In vitro Assay; ref Albrecht 2019; cited from earlier work
[18] = test system: HepG2 C3A spheroid, BSEP, Glu/Gal in HepG2 cells, bioactivation; details: cited from earlier work
[19] = In vitro Assay, ref Khetani 2012

Q: Which “DILI Score (FDA) (1-8)” value [1] does the source give for `O=P1(N(CCCl)CCCl)NCCCO1` (stereo not shown) [cyclophosphamide, reference compound] here?
A: Its value is 5.

Q: And the “Human plasma Cmax,u” value [2]?
A: The value was 114.400 µM.

Q: What about the “DILI in vitro assay prediction, O'Brien (2006)” value (HepG2 cells [3]) of the same molecule?
A: The value was “+VE (key: +VE: lowest HCI endpoint IC50 (or in the absence of dose–response < 100 µM) < 30 × total human plasma exposure levels (Cmax.tot))”.

Q: And the “Structural based (HCI)” value (HepG2 cells [3])?
A: Its value is “+VE”.

Q: What about the “hLiMTs ATP <100uM” value (hLiMTs [4]) of the same molecule?
A: Its value is “-VE”.

Q: And the “hLiMTs/100uM, Proctor (2017)” value (hLiMTs [4])?
A: The value was “-VE”.

Q: And the Cmax [5]?
A: The Cmax was 143 µM.

Q: And the “DILI in vitro assay prediction, Xu (2008)” value (human hepatocytes)?
A: Its value is “-VE”.

Q: And the “Structural based (HCI)” value (human hepatocytes)?
A: Its value is “-VE”.

Q: What about the AC50 (hLiMTs [6]; read-out: ATP endpoint AC50) of the same molecule?
A: The AC50 was 906 µM.

Q: What about the minimal effective concentration (hLiMTs [6]; read-out: ATP endpoint MEC) of the same molecule?
A: Its minimal effective concentration is 613 µM.

Q: And the AC50 (hLiMTs [6]; read-out: HCS endpoint AC50)?
A: The AC50 was 992 µM.

Q: And the minimal effective concentration (hLiMTs [6]; read-out: HCS endpoint MEC)?
A: Its minimal effective concentration is 236 µM.

Q: What about the “Assigned DILI category” value [7] of the same molecule?
A: The value was 2.

Q: What about the “DILI prediction HepaRG spheroids (HCS-MEC)” value (HepaRG spheroids [8]) of the same molecule?
A: The value was “+VE (key: +VE: MEC < 25 × Cmax.tot cut-off)”.

Q: What about the “HepaRG <10 uM All” value (HepaRG spheroids [8]) of the same molecule?
A: The value was “-ve”.

Q: And the “HepaRG <100x Avg Cmaxu ATP” value (HepaRG spheroids [8]; human)?
A: Its value is “+ve (key: +ve: <100x Avg Cmaxu)”.

Q: And the “HepaRG <100x Avg Cmaxu All” value (HepaRG spheroids [8]; human)?
A: The value was “+ve (key: +ve: <100x Avg Cmaxu)”.

Q: What about the “HepaRG <100x Avg Cmaxu HCS” value (HepaRG spheroids [8]; human) of the same molecule?
A: Its value is “+ve (key: +ve: <100x Avg Cmaxu)”.

Q: And the “HepaRG Cmax max All” value (HepaRG spheroids [8]; human)?
A: Its value is “+ve”.

Q: What about the “HepaRG Cmax min All” value (HepaRG spheroids [8]; human) of the same molecule?
A: The value was “-ve”.

Q: What about the “PHH ATP <100uM” value (PHH [9]) of the same molecule?
A: The value was “-VE”.

Q: And the “PHH/100uM, Proctor (2017)” value (PHH [9])?
A: The value was “-VE”.

Q: What about the “Cellular toxicity (3T3 cells)” value [10] of the same molecule?
A: Its value is “-VE”.

Q: What about the “DILI in vitro assay prediction, Schadt (2015)” value [10] of the same molecule?
A: The value was “-VE”.

Q: And the “GSH adduct HML” value [10]?
A: The value was “-VE”.

Q: And the Hepatocyte cellular toxicity [10]?
A: The Hepatocyte cellular toxicity was “-VE”.

Q: And the “MitoTox 3T3” value [10]?
A: The value was “-VE”.

Q: What about the “TDI CYP3A4” value [10] of the same molecule?
A: Its value is “-VE”.

Q: And the hBSEP inhibition [10]?
A: The hBSEP inhibition was “-VE”.

Q: What about the “DILI prediction hLiMTs (HCS-MEC)” value (hLiMTs [11]) of the same molecule?
A: The value was “+VE (key: +VE: MEC < 25 × Cmax.tot cut-off)”.

Q: And the “hLiMTs <10 uM All” value (hLiMTs [11])?
A: Its value is “-ve”.

Q: And the “hLiMTs <100x Avg Cmaxu ATP” value (hLiMTs [11]; human)?
A: The value was “+ve (key: +ve: <100x Avg Cmaxu)”.

Q: And the “hLiMTs <100x Avg Cmaxu All” value (hLiMTs [11]; human)?
A: The value was “+ve (key: +ve: <100x Avg Cmaxu)”.

Q: What about the “hLiMTs <100x Avg Cmaxu HCS” value (hLiMTs [11]; human) of the same molecule?
A: Its value is “+ve (key: +ve: <100x Avg Cmaxu)”.

Q: What about the “hLiMTs Cmax max All” value (hLiMTs [11]; human) of the same molecule?
A: Its value is “+ve”.

Q: What about the “hLiMTs Cmax min All” value (hLiMTs [11]; human) of the same molecule?
A: Its value is “-ve”.

Q: What about the “HMPCC's” value (hu-MPCC) of the same molecule?
A: The value was “+VE”.

Q: What about the “DILI in vitro assay prediction, Tolosa (2012)” value (HepG2 cells [12]) of the same molecule?
A: Its value is “-VE”.

Q: What about the “Structural based (HCI)” value (HepG2 cells [12]) of the same molecule?
A: The value was “+VE”.

Q: And the “DILI +VE (5-8), DILI -VE (-4)” value [13]?
A: The value was “+VE”.

Q: And the “DILI severity category (Chen et al. [2016])” value [13]?
A: Its value is “Less”.

Q: What about the “RMPCC's” value (RMPCC's) of the same molecule?
A: The value was “+VE”.

Q: And the “Partition Hybrid HRM Score” value [14]?
A: Its value is “-VE”.

Q: And the “Partition Hybrid HRM Score ≥4, Aleo (2019)” value [14]?
A: Its value is “-VE”.

Q: What about the “Partition Hybrid HRM Score ≥8, Aleo (2019)” value [14] of the same molecule?
A: The value was “-VE”.

Q: And the “Ro2 Hybrid HRM Score” value [14]?
A: The value was “-VE”.

Q: What about the “Rule of Two hybrid HRM Score ≥3, Aleo (2019)” value [14] of the same molecule?
A: The value was “-VE”.

Q: What about the “Rule of Two hybrid HRM Score ≥8, Aleo (2019)” value [14] of the same molecule?
A: The value was “-VE”.

Q: And the AC50 (HepaRG spheroids [15]; read-out: ATP endpoint AC50)?
A: Its AC50 is 419 µM.

Q: And the minimal effective concentration (HepaRG spheroids [15]; read-out: ATP endpoint MEC)?
A: The minimal effective concentration was 229 µM.

Q: What about the AC50 (HepaRG spheroids [15]; read-out: HCS endpoint AC50) of the same molecule?
A: The AC50 was 1860 µM.

Q: And the minimal effective concentration (HepaRG spheroids [15]; read-out: HCS endpoint MEC)?
A: Its minimal effective concentration is 340 µM.

Q: With `CCCCC1C(=O)N(c2ccccc2)N(c2ccccc2)C1=O` [phenylbutazone] as the molecule, how does the “Structural based (HCI)” value (HepG2 cells [3]; In vitro Assay, ref O'Brien 2006) read?
A: Its value is “+VE”.

Q: What about the “Cytotoxicity HepG2 48 hrs” value (HepG2) of the same molecule?
A: The value was “+VE”.

Q: And the “In vivo DILI” value [7]?
A: Its value is “+VE”.

Q: And the “in vitro data EC2<=1x Cmax” value [16]?
A: Its value is “+VE”.

Q: What about the “HMPCC's” value (hu-MPCC; [19]) of the same molecule?
A: The value was “+VE”.

Q: What about the “RMPCC's” value (RMPCC's; [19]) of the same molecule?
A: The value was “+VE”.

Q: What about the “Cytotoxicity PHH 48 hrs” value (PHH [17]) of the same molecule?
A: Its value is “+VE”.

Q: For `C[C@H](CS)C(=O)N1CCC[C@H]1C(=O)O` [captopril], which “Structural based (HCI)” value (HepG2 cells [3]) is on record?
A: The value was “+VE”.

Q: What about the “Bayesian Machine Learning” value [18] of the same molecule?
A: The value was “+VE”.

Q: And the “Structural based (HCI)” value (human hepatocytes)?
A: Its value is “-VE”.

Q: What about the “In vivo DILI” value [7] of the same molecule?
A: The value was “+VE”.

Q: What about the “HMPCC's” value (hu-MPCC) of the same molecule?
A: The value was “-VE”.

Q: And the “Structural based (HCI)” value (HepG2 cells [12])?
A: Its value is “+VE”.

Q: And the “DILI +VE (5-8), DILI -VE (-4)” value [13]?
A: The value was “+VE”.

Q: And the DILI severity category [13]?
A: Its DILI severity category is “vLess-DILI-Concern”.

Q: What about the “RMPCC's” value (RMPCC's) of the same molecule?
A: Its value is “-VE”.

Q: What about the “Ro2 Hybrid HRM Score” value [14] of the same molecule?
A: Its value is “-VE”.
